Values quoted from earlier work as cited in US20210128676A1, “METHOD OF TREATING PATIENTS WITH H[…] TYPE 1 AND LOW MEAN ARTERIAL PRESSURE” (Mallinckrodt Hospital Products IP Unlimited Company, priority 2019, published 2021).
Positions of bridges follow the written chain, without caps; N, C: chain ends. Residues, ends and D or L forms follow the SMILES beside them.

Settings: in vivo

SMILES | half-life [h] | duration of action [min]
NCCCC[C@H](NC(=O)[C@@H]1CCCN1C(=O)[C@@H]1CSSC[C@H](NC(=O)CNC(=O)CNC(=O)CN)C(=O)N[C@@H](Cc2ccc(O)cc2)C(=O)N[C@@H](Cc2ccccc2)C(=O)N[C@@H](CCC(N)=O)C(=O)N[C@@H](CC(N)=O)C(=O)N1)C(=O)NCC(N)=O [Terlipressin, N—[N—(N-glycylglycyl)glycyl]-8-L-lysinevasopressin] (H-GGGCYFQNCPKG-NH2; disulfide 4-9 (inferred)) | 6 | –
NC(=O)CC[C@@H]1NC(=O)[C@H](Cc2ccccc2)NC(=O)[C@H](Cc2ccc(O)cc2)NC(=O)[C@@H](N)CSSC[C@@H](C(=O)N2CCC[C@H]2C(=O)N[C@@H](CCCN=C(N)N)C(=O)NCC(N)=O)NC(=O)[C@H](CC(N)=O)NC1=O [vasopressin] | 0.1 | 30 to 60
